In PubChem BioAssay (NCI):
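Dose response: 5 concentrations. Exposure: 48 h. Format: 96-well plates. Endpoint: linear interpolation; highest concentration if not reached. At the GI50, growth is halved. TGI: total growth inhibition.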

Tests used:
Assay in all cases: DTP human tumour cell line panel, 48 h
HOP-62 NSCLC = tested on: HOP-62 NSCLC
OVCAR-8 ovarian = tested on: OVCAR-8 ovarian
SK-OV-3 ovarian = tested on: SK-OV-3 ovarian
CCRF-CEM leukemia = tested on: CCRF-CEM leukemia
KM12 colon = tested on: KM12 colon
TK-10 renal = tested on: TK-10 renal
NCI-H460 lung = tested on: NCI-H460 lung
A549 NSCLC = tested on: A549 NSCLC
SK-MEL-2 melanoma = tested on: SK-MEL-2 melanoma
MOLT-4 leukemia = tested on: MOLT-4 leukemia
OVCAR-3 ovarian = tested on: OVCAR-3 ovarian
A498 renal = tested on: A498 renal
MALME-3M melanoma = tested on: MALME-3M melanoma
SW-620 colon = tested on: SW-620 colon
SF-268 CNS = tested on: SF-268 CNS
SF-295 CNS = tested on: SF-295 CNS
HCT-15 colon = tested on: HCT-15 colon
OVCAR-4 ovarian = tested on: OVCAR-4 ovarian
SF-539 CNS = tested on: SF-539 CNS
IGROV1 ovarian = tested on: IGROV1 ovarian
UO-31 renal = tested on: UO-31 renal
UACC-62 melanoma = tested on: UACC-62 melanoma
NCI-H23 lung = tested on: NCI-H23 lung
SN12C renal = tested on: SN12C renal
HCC-2998 colon = tested on: HCC-2998 colon
DU-145 prostate = tested on: DU-145 prostate
EKVX NSCLC = tested on: EKVX NSCLC
SNB-75 CNS = tested on: SNB-75 CNS
LOX IMVI melanoma = tested on: LOX IMVI melanoma
HOP-92 NSCLC = tested on: HOP-92 NSCLC
MDA-MB-435 = tested on: MDA-MB-435
M14 melanoma = tested on: M14 melanoma
PC-3 prostate = tested on: PC-3 prostate
T-47D breast = tested on: T-47D breast
SK-MEL-5 melanoma = tested on: SK-MEL-5 melanoma
RXF 393 renal = tested on: RXF 393 renal
RPMI-8226 leukemia = tested on: RPMI-8226 leukemia
HT29 colon = tested on: HT29 colon
NCI/ADR-RES ovarian = tested on: NCI/ADR-RES ovarian
U251 CNS = tested on: U251 CNS
MDA-MB-231 breast = tested on: MDA-MB-231 breast
MCF7 breast = tested on: MCF7 breast
NCI-H522 lung = tested on: NCI-H522 lung
K-562 leukemia = tested on: K-562 leukemia
786-0 renal = tested on: 786-0 renal
HL-60(TB) leukemia = tested on: HL-60(TB) leukemia
OVCAR-5 ovarian = tested on: OVCAR-5 ovarian
UACC-257 melanoma = tested on: UACC-257 melanoma
CAKI-1 renal = tested on: CAKI-1 renal
HCT-116 colon = tested on: HCT-116 colon
ACHN renal = tested on: ACHN renal
BT-549 breast = tested on: BT-549 breast
COLO 205 colon = tested on: COLO 205 colon
SNB-19 CNS = tested on: SNB-19 CNS
SK-MEL-28 melanoma = tested on: SK-MEL-28 melanoma
SR leukemia = tested on: SR leukemia
NCI-H226 lung = tested on: NCI-H226 lung
HS 578T breast = tested on: HS 578T breast

With `N#Cc1c2ccccc2c2nnc3cc(Cl)c(Cl)cc3n12` the GI50 (HOP-62 NSCLC) was 31.2 µM, the TGI (HOP-62 NSCLC) was over 100 µM and the GI50 (OVCAR-8 ovarian) was 40 µM. The TGI (OVCAR-8 ovarian) was over 100 µM, the GI50 (SK-OV-3 ovarian) was over 100 µM and the TGI (SK-OV-3 ovarian) was over 100 µM. The GI50 (CCRF-CEM leukemia) was 85.4 µM, the TGI (CCRF-CEM leukemia) was over 100 µM and the GI50 (KM12 colon) was over 100 µM. It also gave a TGI (KM12 colon) of over 100 µM, a GI50 (TK-10 renal) of over 100 µM and a TGI (TK-10 renal) of over 100 µM. The GI50 (NCI-H460 lung) was 54.2 µM, the TGI (NCI-H460 lung) was over 100 µM and the GI50 (A549 NSCLC) was 47.7 µM. For the same molecule, the TGI (A549 NSCLC) was over 100 µM, the GI50 (SK-MEL-2 melanoma) was 60.7 µM and the TGI (SK-MEL-2 melanoma) was over 100 µM. It also gave a GI50 (MOLT-4 leukemia) of 27.4 µM, a TGI (MOLT-4 leukemia) of over 100 µM and a GI50 (OVCAR-3 ovarian) of 33.1 µM. The TGI (OVCAR-3 ovarian) was 95.9 µM, the GI50 (A498 renal) was 56.6 µM and the TGI (A498 renal) was over 100 µM. It also gave a GI50 (MALME-3M melanoma) of over 100 µM, a TGI (MALME-3M melanoma) of over 100 µM and a GI50 (SW-620 colon) of over 100 µM. For the same molecule, the TGI (SW-620 colon) was over 100 µM, the GI50 (SF-268 CNS) was 27.7 µM and the TGI (SF-268 CNS) was 83.3 µM. The GI50 (SF-295 CNS) was 93.7 µM, the TGI (SF-295 CNS) was over 100 µM and the GI50 (HCT-15 colon) was 33 µM. The TGI (HCT-15 colon) was over 100 µM, the GI50 (OVCAR-4 ovarian) was 40.8 µM and the TGI (OVCAR-4 ovarian) was over 100 µM. The GI50 (SF-539 CNS) was 28.5 µM, the TGI (SF-539 CNS) was 61.8 µM and the GI50 (IGROV1 ovarian) was 44.5 µM. For the same molecule, the TGI (IGROV1 ovarian) was over 100 µM, the GI50 (UO-31 renal) was 23.3 µM and the TGI (UO-31 renal) was 65.8 µM. For the same molecule, the GI50 (UACC-62 melanoma) was 62.1 µM, the TGI (UACC-62 melanoma) was over 100 µM and the GI50 (NCI-H23 lung) was 75.1 µM. It also gave a TGI (NCI-H23 lung) of over 100 µM, a GI50 (SN12C renal) of 23 µM and a TGI (SN12C renal) of 61.6 µM. For the same molecule, the GI50 (HCC-2998 colon) was 23 µM, the TGI (HCC-2998 colon) was 82.1 µM and the GI50 (DU-145 prostate) was 32.4 µM. The TGI (DU-145 prostate) was over 100 µM, the GI50 (EKVX NSCLC) was 48.6 µM and the TGI (EKVX NSCLC) was over 100 µM. It also gave a GI50 (SNB-75 CNS) of 71.7 µM, a TGI (SNB-75 CNS) of over 100 µM and a GI50 (LOX IMVI melanoma) of 59.3 µM. For the same molecule, the TGI (LOX IMVI melanoma) was over 100 µM, the GI50 (HOP-92 NSCLC) was 42 µM and the TGI (HOP-92 NSCLC) was over 100 µM. For the same molecule, the GI50 (MDA-MB-435) was over 100 µM, the TGI (MDA-MB-435) was over 100 µM and the GI50 (M14 melanoma) was over 100 µM. It also gave a TGI (M14 melanoma) of over 100 µM, a GI50 (PC-3 prostate) of 30 µM and a TGI (PC-3 prostate) of 73.7 µM. For the same molecule, the GI50 (T-47D breast) was over 100 µM, the TGI (T-47D breast) was over 100 µM and the GI50 (SK-MEL-5 melanoma) was 84.2 µM. For the same molecule, the TGI (SK-MEL-5 melanoma) was over 100 µM, the GI50 (RXF 393 renal) was 30 µM and the TGI (RXF 393 renal) was over 100 µM. The GI50 (RPMI-8226 leukemia) was 29.6 µM, the TGI (RPMI-8226 leukemia) was over 100 µM and the GI50 (HT29 colon) was over 100 µM. The TGI (HT29 colon) was over 100 µM, the GI50 (NCI/ADR-RES ovarian) was 31.6 µM and the TGI (NCI/ADR-RES ovarian) was 97.8 µM. The GI50 (U251 CNS) was 50.7 µM, the TGI (U251 CNS) was over 100 µM and the GI50 (MDA-MB-231 breast) was 24.2 µM. The TGI (MDA-MB-231 breast) was 74.6 µM, the GI50 (MCF7 breast) was 27.5 µM and the TGI (MCF7 breast) was 90.3 µM. It also gave a GI50 (NCI-H522 lung) of 39.2 µM, a TGI (NCI-H522 lung) of over 100 µM and a GI50 (K-562 leukemia) of 29 µM. It also gave a TGI (K-562 leukemia) of 89.1 µM, a GI50 (786-0 renal) of over 100 µM and a TGI (786-0 renal) of over 100 µM. It also gave a GI50 (HL-60(TB) leukemia) of 22.6 µM, a TGI (HL-60(TB) leukemia) of 70.2 µM and a GI50 (OVCAR-5 ovarian) of over 100 µM. For the same molecule, the TGI (OVCAR-5 ovarian) was over 100 µM, the GI50 (UACC-257 melanoma) was 34.5 µM and the TGI (UACC-257 melanoma) was over 100 µM. For the same molecule, the GI50 (CAKI-1 renal) was 77.4 µM, the TGI (CAKI-1 renal) was over 100 µM and the GI50 (HCT-116 colon) was 34.2 µM. For the same molecule, the TGI (HCT-116 colon) was over 100 µM, the GI50 (ACHN renal) was 19.9 µM and the TGI (ACHN renal) was 52.8 µM. It also gave a GI50 (BT-549 breast) of 60.9 µM and a TGI (BT-549 breast) of over 100 µM.
Molecule `CC(=O)c1nc2ccccc2n1CC(=O)c1ccc([N+](=O)[O-])cc1` has a TGI (HOP-62 NSCLC) of 17.6 µM, a TGI (COLO 205 colon) of over 100 µM and a TGI (OVCAR-8 ovarian) of 21 µM. For the same molecule, the TGI (SK-OV-3 ovarian) was over 100 µM, the TGI (CCRF-CEM leukemia) was over 100 µM and the TGI (KM12 colon) was 47.3 µM. For the same molecule, the TGI (TK-10 renal) was over 100 µM, the TGI (NCI-H460 lung) was 68.6 µM and the TGI (A549 NSCLC) was 37.6 µM. The TGI (MOLT-4 leukemia) was 84.5 µM, the TGI (OVCAR-3 ovarian) was 35.4 µM and the TGI (A498 renal) was over 100 µM. For the same molecule, the TGI (MALME-3M melanoma) was 33.2 µM, the TGI (SW-620 colon) was 41.6 µM and the TGI (SF-268 CNS) was over 100 µM. The TGI (SF-295 CNS) was 36.1 µM, the TGI (HCT-15 colon) was over 100 µM and the TGI (OVCAR-4 ovarian) was over 100 µM. The TGI (SF-539 CNS) was over 100 µM, the TGI (SNB-19 CNS) was 74.2 µM and the TGI (SK-MEL-28 melanoma) was over 100 µM. For the same molecule, the TGI (IGROV1 ovarian) was 14.5 µM, the TGI (UO-31 renal) was 45.9 µM and the TGI (UACC-62 melanoma) was 60.9 µM. It also gave a TGI (NCI-H23 lung) of over 100 µM, a TGI (SN12C renal) of over 100 µM and a TGI (DU-145 prostate) of over 100 µM. It also gave a TGI (EKVX NSCLC) of over 100 µM, a TGI (SNB-75 CNS) of over 100 µM and a TGI (SR leukemia) of over 100 µM. It also gave a TGI (LOX IMVI melanoma) of 23.2 µM, a TGI (NCI-H226 lung) of 57.9 µM and a TGI (MDA-MB-435) of over 100 µM. It also gave a TGI (M14 melanoma) of over 100 µM, a TGI (HS 578T breast) of 28.9 µM and a TGI (PC-3 prostate) of 44.4 µM. For the same molecule, the TGI (T-47D breast) was over 100 µM, the TGI (RXF 393 renal) was over 100 µM and the TGI (RPMI-8226 leukemia) was over 100 µM. It also gave a TGI (HT29 colon) of 46 µM, a TGI (NCI/ADR-RES ovarian) of 49.2 µM and a TGI (U251 CNS) of 19.9 µM. It also gave a TGI (MDA-MB-231 breast) of over 100 µM, a TGI (MCF7 breast) of 58.8 µM and a TGI (NCI-H522 lung) of 15.7 µM. For the same molecule, the TGI (K-562 leukemia) was over 100 µM, the TGI (786-0 renal) was 15.9 µM and the TGI (HL-60(TB) leukemia) was over 100 µM. The TGI (UACC-257 melanoma) was over 100 µM, the TGI (CAKI-1 renal) was 53.7 µM and the TGI (HCT-116 colon) was 25.1 µM. It also gave a TGI (BT-549 breast) of 52.6 µM.
